Assay results published in ChEMBL document CHEMBL4196124, “Reverse Hydroxamate Inhibitors of Bone Morphogenetic Protein 1” (ACS Med Chem Lett, 2018).

Tests used:
[1] = molecular target: T1, Bone morphogenetic protein 1 (Homo sapiens, UniProt P13497); test: Inhibition of recombinant human N-terminal 6His/flag-tagged BMP1 (121 to 721 residues) expressed in CHO cells using ((5-FAM)-ELIDQYDVQRDDSSDGSLED-K(5,6 TAMRA)-CONH2) as substrate preincubated for 10 mins followed by substrate addition measured after 60 mins
T1 sequence (P13497 whole entry): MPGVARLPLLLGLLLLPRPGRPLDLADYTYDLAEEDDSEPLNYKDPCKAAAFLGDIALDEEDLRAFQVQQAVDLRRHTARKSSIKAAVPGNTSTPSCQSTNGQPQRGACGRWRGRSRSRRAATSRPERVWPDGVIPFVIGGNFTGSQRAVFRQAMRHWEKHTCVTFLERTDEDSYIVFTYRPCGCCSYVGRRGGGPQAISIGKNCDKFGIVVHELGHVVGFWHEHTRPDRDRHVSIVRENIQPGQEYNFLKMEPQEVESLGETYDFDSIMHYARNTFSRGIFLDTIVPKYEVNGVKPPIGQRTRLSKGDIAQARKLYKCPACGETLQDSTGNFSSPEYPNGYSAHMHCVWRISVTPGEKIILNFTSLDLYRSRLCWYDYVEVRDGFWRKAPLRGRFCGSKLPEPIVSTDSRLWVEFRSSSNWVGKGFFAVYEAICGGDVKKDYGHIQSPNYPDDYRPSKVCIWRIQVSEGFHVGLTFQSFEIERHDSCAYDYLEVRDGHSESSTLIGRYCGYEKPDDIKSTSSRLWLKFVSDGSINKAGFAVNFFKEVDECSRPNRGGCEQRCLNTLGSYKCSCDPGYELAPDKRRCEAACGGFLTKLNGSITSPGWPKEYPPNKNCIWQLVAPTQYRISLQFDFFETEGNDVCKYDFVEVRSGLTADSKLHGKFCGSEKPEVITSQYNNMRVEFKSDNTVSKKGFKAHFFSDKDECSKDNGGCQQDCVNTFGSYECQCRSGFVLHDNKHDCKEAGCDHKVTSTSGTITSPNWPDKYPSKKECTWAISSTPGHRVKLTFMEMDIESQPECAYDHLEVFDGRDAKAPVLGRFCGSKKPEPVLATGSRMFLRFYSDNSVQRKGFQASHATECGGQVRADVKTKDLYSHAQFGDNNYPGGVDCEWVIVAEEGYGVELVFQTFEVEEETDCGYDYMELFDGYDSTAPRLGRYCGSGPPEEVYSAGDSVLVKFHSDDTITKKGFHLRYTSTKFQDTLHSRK

[2] = tested on: Rattus norvegicus; test: Dose normalized AUC in po dosed rat; type: ADME, organism-based; conditions: in vivo
[3] = molecular target: T2, Tolloid-like protein 2 (Homo sapiens, UniProt Q9Y6L7); test: Inhibition of recombinant human N-terminal 6His-tagged TLL2 (26 to 1015 residues) expressed in CHO cells using ((5-FAM)-ELIDQYDVQRDDSSDGSLED-K(5,6 TAMRA)-CONH2) as substrate preincubated for 10 mins followed by substrate addition measured after 60 mins
T2 sequence (Q9Y6L7 whole entry): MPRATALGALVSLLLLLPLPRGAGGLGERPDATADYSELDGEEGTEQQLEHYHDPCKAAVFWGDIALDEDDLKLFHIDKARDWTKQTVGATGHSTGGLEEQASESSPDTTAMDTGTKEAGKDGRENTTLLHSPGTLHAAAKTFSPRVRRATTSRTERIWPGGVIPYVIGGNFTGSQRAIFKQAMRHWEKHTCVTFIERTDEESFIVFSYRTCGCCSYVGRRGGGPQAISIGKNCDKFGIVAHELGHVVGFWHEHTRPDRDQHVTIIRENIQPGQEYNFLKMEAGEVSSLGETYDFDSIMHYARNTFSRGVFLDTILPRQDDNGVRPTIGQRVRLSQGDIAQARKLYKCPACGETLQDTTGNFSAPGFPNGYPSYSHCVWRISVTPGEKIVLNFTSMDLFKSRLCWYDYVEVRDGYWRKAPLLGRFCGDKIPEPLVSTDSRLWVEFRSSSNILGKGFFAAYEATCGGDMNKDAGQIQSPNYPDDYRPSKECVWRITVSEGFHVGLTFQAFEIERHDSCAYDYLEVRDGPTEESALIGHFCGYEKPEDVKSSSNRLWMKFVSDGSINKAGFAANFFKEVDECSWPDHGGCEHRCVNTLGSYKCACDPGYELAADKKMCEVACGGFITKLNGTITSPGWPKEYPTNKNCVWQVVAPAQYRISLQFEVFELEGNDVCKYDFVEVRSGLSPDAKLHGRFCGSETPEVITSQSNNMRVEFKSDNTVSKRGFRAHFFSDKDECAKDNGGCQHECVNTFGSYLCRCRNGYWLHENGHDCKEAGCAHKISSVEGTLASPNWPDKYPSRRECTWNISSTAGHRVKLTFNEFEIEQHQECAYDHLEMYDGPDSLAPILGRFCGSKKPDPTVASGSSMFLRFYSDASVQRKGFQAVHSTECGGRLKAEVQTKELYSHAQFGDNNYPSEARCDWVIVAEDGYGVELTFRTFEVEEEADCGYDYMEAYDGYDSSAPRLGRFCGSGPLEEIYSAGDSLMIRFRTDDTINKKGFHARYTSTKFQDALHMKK

[4] = species on record: Homo sapiens; test: Selectivity ratio of IC50 for human ACE1 to IC50 for recombinant human N-terminal 6His/flag-tagged BMP1 (121 to 721 residues) expressed in CHO cells; type: cell-based
[5] = species on record: Homo sapiens; test: Selectivity ratio of IC50 for ADAM9 (unknown origin) to IC50 for recombinant human N-terminal 6His/flag-tagged BMP1 (121 to 721 residues) expressed in CHO cells; type: cell-based
[6] = species on record: Homo sapiens; test: Selectivity ratio of IC50 for recombinant human C-terminal MMP7 (78 to 250 residues) catalytic domain expressed in Escherichia coli to IC50 for recombinant human N-terminal 6His/flag-tagged BMP1 (121 to 721 residues) expressed in CHO cells
[7] = species on record: Homo sapiens; test: Selectivity ratio of IC50 for MMP8 (unknown origin) to IC50 for recombinant human N-terminal 6His/flag-tagged BMP1 (121 to 721 residues) expressed in CHO cells; type: cell-based
[8] = species on record: Homo sapiens; test: Selectivity ratio of IC50 for MMP10 (unknown origin) to IC50 for recombinant human N-terminal 6His/flag-tagged BMP1 (121 to 721 residues) expressed in CHO cells; type: cell-based
[9] = species on record: Homo sapiens; test: Selectivity ratio of IC50 for recombinant human C-terminal MMP12 (84 to 255 residues) catalytic domain expressed in Escherichia coli to IC50 for recombinant human N-terminal 6His/flag-tagged BMP1 (121 to 721 residues) expressed in CHO cells
[10] = species on record: Homo sapiens; test: Selectivity ratio of IC50 for recombinant human C-terminal MMP13 (85 to 255 residues) catalytic domain expressed in Escherichia coli to IC50 for recombinant human N-terminal 6His/flag-tagged BMP1 (121 to 721 residues) expressed in CHO cells
[11] = species on record: Homo sapiens; test: Selectivity ratio of IC50 for recombinant human His-tagged TACE (1 to 671 residues) expressed in insect cells to IC50 for recombinant human N-terminal 6His/flag-tagged BMP1 (121 to 721 residues) expressed in CHO cells

- IC50 [1]: 32 nM
- AUC/dose [2]: 1.6 kg·h/L
- IC50 [3]: 160 nM
Structure (SMILES): CCCCC[C@@H](C(=O)NCNC(=O)c1ccc(-c2ccccc2)o1)[C@@H](CC)N(O)C=O
- Ratio IC50 [4]: > 30
- Ratio IC50 [5]: > 30
- Ratio IC50 [6]: > 30
- Ratio IC50 [7]: > 30
- Ratio IC50 [8]: > 30
- Ratio IC50 [9]: > 30
- Ratio IC50 [10]: > 30
- Ratio IC50 [11]: > 30
